In ChEMBL document CHEMBL1201862, “PubChem BioAssay data set” (2004):
Calls of active or inactive are those of the source.

Columns and labels:
A-375 [1] = experiment: A375 melanoma cell viability reduction, dose response, counter-screen for MITF modulator project, cherry-pick samples, set 2 (AID 540335); assay type: functional, cell-based; details: Homo sapiens
A-375 [2] = experiment: MITF: Counter assay: A375 proliferation Measured in Cell-Based System Using Plate Reader - 2084-03_Inhibitor_Dose_DryPowder_Activity. [Related pubchem assays (depositor defined):AID488944]; assay type: functional; details: Homo sapiens
CAAX prenyl protease 1 = CAAX prenyl protease 1 (Saccharomyces cerevisiae S288c, UniProt P47154); experiment: Ste24 protease inhibitors, dose response, biochemical, S. cerevisiae, plate reader, cherry-pick (AID 488815)
Chain of CAAX prenyl protease 1 (P47154 whole entry): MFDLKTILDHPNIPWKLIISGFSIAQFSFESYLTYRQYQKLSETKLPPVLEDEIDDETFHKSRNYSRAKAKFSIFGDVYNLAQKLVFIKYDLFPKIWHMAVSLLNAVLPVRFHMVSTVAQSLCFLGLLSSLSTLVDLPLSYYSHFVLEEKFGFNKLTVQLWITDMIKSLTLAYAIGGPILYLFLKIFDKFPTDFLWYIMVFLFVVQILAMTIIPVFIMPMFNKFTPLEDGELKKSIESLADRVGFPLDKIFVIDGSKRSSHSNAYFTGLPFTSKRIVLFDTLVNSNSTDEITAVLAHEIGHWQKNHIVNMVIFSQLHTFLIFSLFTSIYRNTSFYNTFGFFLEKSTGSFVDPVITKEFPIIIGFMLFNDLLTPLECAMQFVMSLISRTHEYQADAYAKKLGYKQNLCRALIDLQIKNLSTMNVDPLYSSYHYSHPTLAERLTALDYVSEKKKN

CAAX prenyl protease 2 [3] = target: CAAX prenyl protease 2 (Homo sapiens, UniProt Q9Y256); experiment: human Rce1 protease inhibitors, dose response, biochemical, yeast membranes, quenched-peptide fluorescence, cherry-pick (AID 588849)
Chain of CAAX prenyl protease 2 (Homo sapiens, UniProt Q9Y256) (Q9Y256 whole entry): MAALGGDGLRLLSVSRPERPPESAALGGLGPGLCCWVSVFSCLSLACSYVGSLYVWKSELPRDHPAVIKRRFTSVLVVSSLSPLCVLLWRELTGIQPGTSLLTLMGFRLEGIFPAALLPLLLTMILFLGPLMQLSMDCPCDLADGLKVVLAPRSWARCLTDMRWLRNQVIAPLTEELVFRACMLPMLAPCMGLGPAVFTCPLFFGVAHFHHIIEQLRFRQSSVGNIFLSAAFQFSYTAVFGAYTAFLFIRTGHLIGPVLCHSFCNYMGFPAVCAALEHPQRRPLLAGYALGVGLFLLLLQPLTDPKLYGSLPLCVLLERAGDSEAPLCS

CAAX prenyl protease 2 [4] = target: T1, CAAX prenyl protease 2 (Saccharomyces cerevisiae S288c, UniProt Q03530); assay type: biochemical
T1 sequence (Q03530 whole entry): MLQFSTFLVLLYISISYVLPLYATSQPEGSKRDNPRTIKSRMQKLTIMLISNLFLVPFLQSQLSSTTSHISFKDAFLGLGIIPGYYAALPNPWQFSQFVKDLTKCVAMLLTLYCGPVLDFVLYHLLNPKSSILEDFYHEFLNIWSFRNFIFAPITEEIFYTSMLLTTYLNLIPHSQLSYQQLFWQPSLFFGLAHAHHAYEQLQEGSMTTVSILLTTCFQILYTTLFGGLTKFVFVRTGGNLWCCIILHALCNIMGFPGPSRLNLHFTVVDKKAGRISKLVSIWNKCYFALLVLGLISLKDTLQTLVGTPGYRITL

[5] = target: T2, Dual specificity protein phosphatase 6 (Rattus norvegicus, UniProt Q64346); assay type: functional
T2 sequence (Q64346 whole entry): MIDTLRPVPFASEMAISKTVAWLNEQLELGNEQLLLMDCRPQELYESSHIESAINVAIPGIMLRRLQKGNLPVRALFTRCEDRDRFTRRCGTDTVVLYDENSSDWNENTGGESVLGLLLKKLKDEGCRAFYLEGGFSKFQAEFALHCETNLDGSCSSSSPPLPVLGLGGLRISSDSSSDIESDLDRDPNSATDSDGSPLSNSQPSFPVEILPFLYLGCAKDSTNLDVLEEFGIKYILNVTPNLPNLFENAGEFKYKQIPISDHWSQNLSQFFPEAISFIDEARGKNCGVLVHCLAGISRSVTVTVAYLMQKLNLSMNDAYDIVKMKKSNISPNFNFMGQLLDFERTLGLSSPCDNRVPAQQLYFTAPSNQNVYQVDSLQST

[6] = target: Glyceraldehyde-3-phosphate dehydrogenase (Homo sapiens, UniProt P04406)
Chain of Glyceraldehyde-3-phosphate dehydrogenase (P04406 whole entry): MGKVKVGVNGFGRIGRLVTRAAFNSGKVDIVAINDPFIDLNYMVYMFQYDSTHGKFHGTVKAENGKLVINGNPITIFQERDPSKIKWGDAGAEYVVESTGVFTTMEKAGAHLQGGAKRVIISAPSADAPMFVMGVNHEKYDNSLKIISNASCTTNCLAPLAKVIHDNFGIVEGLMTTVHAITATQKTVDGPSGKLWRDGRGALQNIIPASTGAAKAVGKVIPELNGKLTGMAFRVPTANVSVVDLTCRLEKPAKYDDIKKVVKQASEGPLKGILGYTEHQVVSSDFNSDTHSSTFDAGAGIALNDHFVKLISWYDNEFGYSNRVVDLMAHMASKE

[7] = target: T3, Tyrosine-protein phosphatase non-receptor type 7 (Homo sapiens, UniProt P35236); assay type: functional
T3 sequence (P35236 whole entry): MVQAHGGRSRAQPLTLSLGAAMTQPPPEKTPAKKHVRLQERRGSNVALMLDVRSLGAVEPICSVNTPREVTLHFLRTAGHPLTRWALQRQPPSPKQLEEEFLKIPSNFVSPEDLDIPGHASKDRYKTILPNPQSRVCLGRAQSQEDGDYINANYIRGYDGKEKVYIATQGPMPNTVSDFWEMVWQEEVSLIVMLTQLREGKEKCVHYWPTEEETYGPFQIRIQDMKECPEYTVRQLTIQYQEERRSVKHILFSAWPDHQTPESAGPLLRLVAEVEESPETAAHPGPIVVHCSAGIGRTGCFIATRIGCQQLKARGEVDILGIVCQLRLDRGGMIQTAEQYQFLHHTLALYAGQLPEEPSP

[8] = target: T2, Dual specificity protein phosphatase 6
INS1 = experiment: beta cell apoptosis inhibitors, cytokine rescue, dose response, luminescence, retest (AID 449756); assay type: functional, cell-based; details: Rattus norvegicus;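 also: cell death triggered by IL-1 beta plus TNF-alpha plus IFN-gamma mixture; protective hits raise ATP signal compared with cytokine alone wells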
[9] = cytotoxicity in HEK-293T NF-kB-Luc cells, dose response, cytotoxicity control for B/T-cell NF-kB inhibitor project, cell-based, uHTS hits (AID 489019); assay type: functional;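 also: IC50 reflects cytotoxicity as loss of cell viability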
Jurkat = experiment: antigen receptor-induced NF-kB inhibitors, dose response, Jurkat, luciferase reporter, luminescence, B- and T-cell (AID 489004); assay type: functional, cell-based; details: Homo sapiens;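 also: NF-kB luciferase reporter Jurkat cells stimulated with PMA plus ionomycin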
Phospholipase D1 = target: T4, Phospholipase D1 (Homo sapiens, UniProt Q13393); experiment: PLD1 inhibitor potency in cells, dose response (AID 602151); assay type: functional;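 also: cellular PLD1 assay in Calu-1 cells stimulated with PMA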
T4 sequence (Q13393 whole entry): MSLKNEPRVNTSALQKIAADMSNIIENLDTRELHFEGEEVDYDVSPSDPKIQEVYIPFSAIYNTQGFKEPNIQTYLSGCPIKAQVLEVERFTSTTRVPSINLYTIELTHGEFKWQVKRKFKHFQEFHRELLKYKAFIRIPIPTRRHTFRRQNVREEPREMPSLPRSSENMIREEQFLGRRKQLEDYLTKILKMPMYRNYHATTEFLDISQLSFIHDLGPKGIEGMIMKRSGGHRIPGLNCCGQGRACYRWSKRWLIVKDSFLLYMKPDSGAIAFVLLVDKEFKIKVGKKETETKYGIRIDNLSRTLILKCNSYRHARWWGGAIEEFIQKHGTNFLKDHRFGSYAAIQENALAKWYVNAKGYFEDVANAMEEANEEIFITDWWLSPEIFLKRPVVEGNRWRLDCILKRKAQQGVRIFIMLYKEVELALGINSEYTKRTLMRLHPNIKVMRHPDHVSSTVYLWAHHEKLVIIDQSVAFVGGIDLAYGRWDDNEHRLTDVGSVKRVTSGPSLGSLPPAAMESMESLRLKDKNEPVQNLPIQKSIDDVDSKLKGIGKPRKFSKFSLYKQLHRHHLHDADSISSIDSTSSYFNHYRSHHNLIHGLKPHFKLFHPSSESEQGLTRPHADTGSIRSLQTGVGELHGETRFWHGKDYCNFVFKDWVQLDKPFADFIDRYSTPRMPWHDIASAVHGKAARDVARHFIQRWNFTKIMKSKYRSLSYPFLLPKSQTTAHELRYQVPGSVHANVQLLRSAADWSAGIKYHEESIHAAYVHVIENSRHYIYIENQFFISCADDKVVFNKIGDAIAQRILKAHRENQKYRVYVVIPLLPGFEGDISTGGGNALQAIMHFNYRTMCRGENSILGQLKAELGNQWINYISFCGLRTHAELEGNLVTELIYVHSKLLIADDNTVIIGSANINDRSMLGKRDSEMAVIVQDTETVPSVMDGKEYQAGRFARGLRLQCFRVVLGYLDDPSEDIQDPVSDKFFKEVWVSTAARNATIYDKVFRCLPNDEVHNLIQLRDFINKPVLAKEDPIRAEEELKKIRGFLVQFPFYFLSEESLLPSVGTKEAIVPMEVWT

Phospholipase D2 = Phospholipase D2 (Homo sapiens, UniProt O14939); experiment: PLD2 inhibitor potency in cells, dose response (AID 602147); assay type: functional;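 also: cellular assay in HEK293 cells overexpressing GFP-tagged PLD2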
Chain of Phospholipase D2 (O14939 whole entry): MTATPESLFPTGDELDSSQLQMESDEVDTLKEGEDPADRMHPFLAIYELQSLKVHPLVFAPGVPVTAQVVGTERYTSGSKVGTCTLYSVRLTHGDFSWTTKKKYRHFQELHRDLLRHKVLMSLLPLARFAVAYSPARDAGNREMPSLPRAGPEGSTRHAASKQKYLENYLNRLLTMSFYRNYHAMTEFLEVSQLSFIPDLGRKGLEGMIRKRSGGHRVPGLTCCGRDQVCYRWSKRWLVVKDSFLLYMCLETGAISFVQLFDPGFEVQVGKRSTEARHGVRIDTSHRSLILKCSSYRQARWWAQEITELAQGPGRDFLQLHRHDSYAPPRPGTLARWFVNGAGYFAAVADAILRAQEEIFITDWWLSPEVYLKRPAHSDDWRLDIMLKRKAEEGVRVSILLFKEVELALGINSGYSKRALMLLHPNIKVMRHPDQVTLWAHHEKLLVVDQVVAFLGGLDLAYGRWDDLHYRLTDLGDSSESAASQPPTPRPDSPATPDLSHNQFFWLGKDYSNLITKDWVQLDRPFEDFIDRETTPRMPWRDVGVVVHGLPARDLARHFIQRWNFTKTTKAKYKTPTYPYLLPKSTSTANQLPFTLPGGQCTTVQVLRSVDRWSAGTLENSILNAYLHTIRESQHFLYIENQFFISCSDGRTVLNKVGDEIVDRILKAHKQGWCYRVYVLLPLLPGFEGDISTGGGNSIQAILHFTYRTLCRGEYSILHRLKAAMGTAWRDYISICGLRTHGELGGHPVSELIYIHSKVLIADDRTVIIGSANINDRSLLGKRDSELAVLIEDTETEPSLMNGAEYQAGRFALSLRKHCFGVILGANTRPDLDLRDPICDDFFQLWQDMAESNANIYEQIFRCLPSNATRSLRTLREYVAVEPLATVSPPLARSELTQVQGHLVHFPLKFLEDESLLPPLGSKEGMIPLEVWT

SMILES: O=C(Nc1ccc2nn(-c3ccccc3)nc2c1)c1ccco1
- AC50 (A-375 [1]): > 35 µM (active)
- AC50 (A-375 [2]): > 35 µM (active)

SMILES: CCOC(=O)c1[nH]c2ccc(OC)cc2c1NC(=O)CN1CCC2(CC1)OCCO2
- AC50 (CAAX prenyl protease 1): 6.79 µM (active)
- AC50 (CAAX prenyl protease 2 [3]): 15.4 µM (active)
- AC50 (CAAX prenyl protease 2 [4]): 67.8 µM (active)

SMILES: Cc1ccc(-n2c(=O)[nH]c(=O)n([C@H](C(N)=O)C(C)C)c2=O)cc1
- IC50 [5]: > 100 µM (inactive)
- IC50 [6]: > 100 µM (not active)
- IC50 [7]: > 100 µM (not active)
- IC50 [8]: > 100 µM (inactive)

SMILES: O=C(Nc1ccc(Cl)cc1)OCc1ccccn1
- AC50 (A-375 [1]): > 35 µM (active)
- AC50 (A-375 [2]): > 35 µM (active)

SMILES: Cc1cc(Cl)c(S(=O)(=O)N2CCN(c3ccc(F)cc3)CC2)cc1OCC(=O)NC1CCCCC1
- AC50 (INS1): 4.82 µM (active)
- IC50 [9]: > 80 µM (inactive)
- IC50 (Jurkat): > 80 µM (inactive)

SMILES: O=S(=O)(O)c1cc2oc(-c3ccccc3)nc2c2ccccc12
- AC50 (CAAX prenyl protease 2 [3]): 1.35 µM (active)

SMILES: C[C@@H](CN1CCC(n2c(=O)[nH]c3ccccc32)CC1)NC(=O)c1ccc(Cl)c(Cl)c1
- IC50 (Phospholipase D1): 0.023 µM (active)
- IC50 (Phospholipase D2): 0.428 µM (active)

SMILES: O=C(NCCN1CCC2(CC1)C(=O)NCN2c1ccccc1)c1cccc(F)n1
- IC50 (Phospholipase D1): 12 µM (active)
- IC50 (Phospholipase D2): 4.46 µM (active)
